Results published in PubChem BioAssay AID1963846 (Molecular Pharmacology Branch, DTP, NCI, 2024).

Test system: 454973-116-R2-J3-PDC complex spheroid viability
Experiment: Anticancer human tumor 454973-116-R2-J3-PDC patient-derived pancreatic carcinoma cell line growth inhibition [POLQ]
Conditions: for IC50: curve of first compound; for viability, T/C: stronger effect = lower value
Summary of the method: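 PDC + HUVEC + MSC complex spheroids; POLQ inhibitors ± partner drugs; top conc. at/near clinical Cmax, else 10 microM (SN-38 1 microM), half-log dilutions; 37 degrees C, 5% CO2.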

[1] = second compound 0.0316 µM, first compound 0.0316 µM
[2] = second compound 0.0316 µM, first compound 0.1 µM
[3] = second compound 0.0316 µM, first compound 0.316 µM
[4] = second compound 0.0316 µM, first compound 1 µM
[5] = second compound 0.0316 µM, first compound 3.16 µM
[6] = second compound 0.0316 µM, first compound 10 µM
[7] = second compound 0.1 µM, first compound 0.0316 µM
[8] = second compound 0.1 µM, first compound 0.1 µM
[9] = second compound 0.1 µM, first compound 0.316 µM
[10] = second compound 0.1 µM, first compound 1 µM
[11] = second compound 0.1 µM, first compound 3.16 µM
[12] = second compound 0.1 µM, first compound 10 µM
[13] = second compound 0.316 µM, first compound 0.0316 µM
[14] = second compound 0.316 µM, first compound 0.1 µM
[15] = second compound 0.316 µM, first compound 0.316 µM
[16] = second compound 0.316 µM, first compound 1 µM
[17] = second compound 0.316 µM, first compound 3.16 µM
[18] = second compound 0.316 µM, first compound 10 µM
[19] = second compound 1 µM, first compound 0.0316 µM
[20] = second compound 1 µM, first compound 0.1 µM
[21] = second compound 1 µM, first compound 0.316 µM
[22] = second compound 1 µM, first compound 1 µM
[23] = second compound 1 µM, first compound 3.16 µM
[24] = second compound 1 µM, first compound 10 µM
[25] = second compound 3.16 µM, first compound 0.0316 µM
[26] = second compound 3.16 µM, first compound 0.1 µM
[27] = second compound 3.16 µM, first compound 0.316 µM
[28] = second compound 3.16 µM, first compound 1 µM
[29] = second compound 3.16 µM, first compound 3.16 µM
[30] = second compound 3.16 µM, first compound 10 µM
[31] = second compound 10 µM, first compound 0.0316 µM
[32] = second compound 10 µM, first compound 0.1 µM
[33] = second compound 10 µM, first compound 0.316 µM
[34] = second compound 10 µM, first compound 1 µM
[35] = second compound 10 µM, first compound 3.16 µM
[36] = second compound 10 µM, first compound 10 µM
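Further: spheroids exposed to drugs for seven days before measurement.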
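Wherever viability, T/C is given: percent viability relative to DMSO vehicle control wells taken as 100%.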

For `O=C(c1cc(Cc2n[nH]c(=O)c3ccccc23)ccc1F)N1CCN(C(=O)C2CC2)CC1` + Nc1ccc(C#CCN(C(=O)Cc2ncc(C(F)(F)F)cc2C(F)(F)F)c2ccc(F)cc2)nn1, the IC50 (second compound 0.0316 µM) was over 10000 nM, the IC50 (second compound 0.1 µM) was over 10000 nM and the IC50 (second compound 0.316 µM) was 9690 nM. For the same molecule, the IC50 (second compound 1 µM) was over 10000 nM, the IC50 (second compound 3.16 µM) was over 10000 nM and the IC50 (second compound 10 µM) was over 10000 nM. For the same molecule, the viability, T/C [1] was 101%, the viability, T/C [2] was 101% and the viability, T/C [3] was 90.8%. For the same molecule, the viability, T/C [4] was 91%, the viability, T/C [5] was 95.1% and the viability, T/C [6] was 58.9%. The viability, T/C [7] was 101%, the viability, T/C [8] was 101% and the viability, T/C [9] was 102%. For the same molecule, the viability, T/C [10] was 102%, the viability, T/C [11] was 83.5% and the viability, T/C [12] was 62.2%. The viability, T/C [13] was 102%, the viability, T/C [14] was 105% and the viability, T/C [15] was 103%. It also gave a viability, T/C [16] of 98.2%, a viability, T/C [17] of 90.5% and a viability, T/C [18] of 48.2%. For the same molecule, the viability, T/C [19] was 104%, the viability, T/C [20] was 105% and the viability, T/C [21] was 114%. The viability, T/C [22] was 102%, the viability, T/C [23] was 97.4% and the viability, T/C [24] was 54.6%. For the same molecule, the viability, T/C [25] was 111%, the viability, T/C [26] was 112% and the viability, T/C [27] was 102%. For the same molecule, the viability, T/C [28] was 99.9%, the viability, T/C [29] was 101% and the viability, T/C [30] was 59.7%. The viability, T/C [31] was 117%, the viability, T/C [32] was 113% and the viability, T/C [33] was 113%. For the same molecule, the viability, T/C [34] was 112%, the viability, T/C [35] was 101% and the viability, T/C [36] was 57.2%.
Work on `CC(=O)O[C@H]1C(=O)[C@@]2(C)[C@H]([C@H](OC(=O)c3ccccc3)[C@]3(O)C[C@H](OC(=O)[C@H](O)[C@@H](NC(=O)c4ccccc4)c4ccccc4)C(C)=C1C3(C)C)[C@]1(OC(C)=O)CO[C@@H]1C[C@@H]2O` + Cc1cccc(N(C)C(=O)C2C(O)CCN2c2nc(C)cc(C(F)(F)F)c2C#N)c1 yielded an IC50 (second compound 0.0316 µM) of under 9.49 nM, an IC50 (second compound 0.1 µM) of under 9.49 nM and an IC50 (second compound 0.316 µM) of under 9.49 nM. It also gave an IC50 (second compound 1 µM) of under 9.49 nM, an IC50 (second compound 3.16 µM) of under 9.49 nM and an IC50 (second compound 10 µM) of under 9.49 nM. It also gave a viability, T/C (second compound 0.0316 µM, first compound 0.00949 µM) of 5.9%, a viability, T/C (second compound 0.0316 µM, first compound 0.03 µM) of 5.78% and a viability, T/C (second compound 0.0316 µM, first compound 0.0949 µM) of 4.79%. The viability, T/C (second compound 0.0316 µM, first compound 0.3 µM) was 5.44%, the viability, T/C (second compound 0.0316 µM, first compound 0.949 µM) was 6.64% and the viability, T/C (second compound 0.0316 µM, first compound 3 µM) was 4.88%. It also gave a viability, T/C (second compound 0.1 µM, first compound 0.00949 µM) of 7.63%, a viability, T/C (second compound 0.1 µM, first compound 0.03 µM) of 5.67% and a viability, T/C (second compound 0.1 µM, first compound 0.0949 µM) of 4.39%. The viability, T/C (second compound 0.1 µM, first compound 0.3 µM) was 5.55%, the viability, T/C (second compound 0.1 µM, first compound 0.949 µM) was 5.21% and the viability, T/C (second compound 0.1 µM, first compound 3 µM) was 5.24%. For the same molecule, the viability, T/C (second compound 0.316 µM, first compound 0.00949 µM) was 7.72%, the viability, T/C (second compound 0.316 µM, first compound 0.03 µM) was 6.78% and the viability, T/C (second compound 0.316 µM, first compound 0.0949 µM) was 5.34%. It also gave a viability, T/C (second compound 0.316 µM, first compound 0.3 µM) of 4.54%, a viability, T/C (second compound 0.316 µM, first compound 0.949 µM) of 4.69% and a viability, T/C (second compound 0.316 µM, first compound 3 µM) of 5.5%. The viability, T/C (second compound 1 µM, first compound 0.00949 µM) was 7.85%, the viability, T/C (second compound 1 µM, first compound 0.03 µM) was 5.01% and the viability, T/C (second compound 1 µM, first compound 0.0949 µM) was 5.19%. The viability, T/C (second compound 1 µM, first compound 0.3 µM) was 5.01%, the viability, T/C (second compound 1 µM, first compound 0.949 µM) was 5.7% and the viability, T/C (second compound 1 µM, first compound 3 µM) was 4.36%. For the same molecule, the viability, T/C (second compound 3.16 µM, first compound 0.00949 µM) was 6.74%, the viability, T/C (second compound 3.16 µM, first compound 0.03 µM) was 5.6% and the viability, T/C (second compound 3.16 µM, first compound 0.0949 µM) was 5.28%. The viability, T/C (second compound 3.16 µM, first compound 0.3 µM) was 4.99%, the viability, T/C (second compound 3.16 µM, first compound 0.949 µM) was 5.45% and the viability, T/C (second compound 3.16 µM, first compound 3 µM) was 4.91%. For the same molecule, the viability, T/C (second compound 10 µM, first compound 0.00949 µM) was 6.83%, the viability, T/C (second compound 10 µM, first compound 0.03 µM) was 5.22% and the viability, T/C (second compound 10 µM, first compound 0.0949 µM) was 5.42%. For the same molecule, the viability, T/C (second compound 10 µM, first compound 0.3 µM) was 5.06%, the viability, T/C (second compound 10 µM, first compound 0.949 µM) was 4.84% and the viability, T/C (second compound 10 µM, first compound 3 µM) was 5.41%.
`Nc1ccn(C2OC(CO)C(O)C2(F)F)c(=O)n1` (stereo unspecified) + Cc1cccc(N(C)C(=O)C2C(O)CCN2c2nc(C)cc(C(F)(F)F)c2C#N)c1 was tested, and the IC50 (second compound 0.0316 µM) was under 31.6 nM, the IC50 (second compound 0.1 µM) was under 31.6 nM and the IC50 (second compound 0.316 µM) was under 31.6 nM. It also gave an IC50 (second compound 1 µM) of under 31.6 nM, an IC50 (second compound 3.16 µM) of under 31.6 nM and an IC50 (second compound 10 µM) of under 31.6 nM. The viability, T/C [1] was 13.4%, the viability, T/C [2] was 13.4% and the viability, T/C [3] was 14.2%. It also gave a viability, T/C [4] of 12.5%, a viability, T/C [5] of 12.3% and a viability, T/C [6] of 12.7%. It also gave a viability, T/C [7] of 16.2%, a viability, T/C [8] of 11.9% and a viability, T/C [9] of 13.7%. For the same molecule, the viability, T/C [10] was 15.5%, the viability, T/C [11] was 13.5% and the viability, T/C [12] was 13.9%. The viability, T/C [13] was 15.1%, the viability, T/C [14] was 13.8% and the viability, T/C [15] was 14.2%. It also gave a viability, T/C [16] of 14.2%, a viability, T/C [17] of 13.6% and a viability, T/C [18] of 12.8%. The viability, T/C [19] was 14.1%, the viability, T/C [20] was 11.7% and the viability, T/C [21] was 13.9%. It also gave a viability, T/C [22] of 14.6%, a viability, T/C [23] of 12.5% and a viability, T/C [24] of 11.8%. For the same molecule, the viability, T/C [25] was 16.9%, the viability, T/C [26] was 13.5% and the viability, T/C [27] was 14.8%. The viability, T/C [28] was 13.8%, the viability, T/C [29] was 12.5% and the viability, T/C [30] was 14%. It also gave a viability, T/C [31] of 13.6%, a viability, T/C [32] of 14.2% and a viability, T/C [33] of 17.1%. It also gave a viability, T/C [34] of 14.2%, a viability, T/C [35] of 13.8% and a viability, T/C [36] of 11.9%.
